Assay [1] deals with P388. Briefly: Cytotoxicity against mouse P388 cells by MTT assay. In kind it is cell-based. In general terms: Tetrazolium assays rely on reduction of a dye to a coloured formazan, in cell work by metabolically active cells.
In assay [2] the test system is Plasmodium falciparum. Briefly: Antiplasmodial activity against Plasmodium falciparum 3D7 by Giemsa staining. In kind it is functional, organism-based.

Molecules are shown by their SMILES. Values after ≈ are worked out from the molar mass of the structure shown.

Turning to `C=C(C)C(=O)O[C@H]1C[C@H]2[C@](C)(C3=CC[C@@H](c4ccoc4)[C@@]31C)[C@H](O)[C@@H]1OC[C@]3(C)C=CC(=O)[C@@]2(C)[C@@H]13` [CERAMICINES C], the IC50 in assay [1] was found to be 5.5 µg/mL (≈ 11.2 µM); in assay [2], 2.38 µg/mL (≈ 4.83 µM). On to `C[C@]12C3=CC[C@@H](c4ccoc4)[C@]3(C)CC[C@@H]1[C@@]1(C)C(=O)C=C[C@@]3(C)CO[C@@H]([C@H]2O)[C@H]13` [CERAMICINES B], for which the concentration for half-maximal inhibition (IC50) in assay [1] was found to be 15 µg/mL (≈ 36.7 µM); in assay [2] it was 0.23 µg/mL (≈ 0.563 µM). On to `CC(=O)O[C@@H]1[C@H]2[C@@H](O)C=CC(=O)[C@]2(C)[C@H]2CC[C@]3(C)C(=CC[C@H]3c3ccoc3)[C@]2(C)[C@@H]1O` [CERAMICINES A], for which, in assay [2], half-maximal inhibition (IC50) required 44.2 µg/mL (≈ 100 µM). On to `C[C@]12C3=CC[C@@H](C4=CCOC4=O)[C@]3(C)CC[C@@H]1[C@@]1(C)C(=O)C=C[C@@]3(C)CO[C@@H]([C@H]2O)[C@H]13` [CERAMICINES D], for which the results for the half-inhibitory concentration (IC50) in assay [1] and in assay [2] were 27 µg/mL (≈ 63.6 µM) and 2.15 µg/mL (≈ 5.06 µM), respectively.

By IC50 is commonly meant the concentration at which inhibition is half-maximal. High values mean a need for much substance, low ones inhibition by little substance.

For the origin of these results see ChEMBL document CHEMBL1140858, “Ceramicines B-D, new antiplasmodial limonoids from Chisocheton ceramicus” (Bioorg Med Chem, 2009).
